Laboratory results from patent US9694016B2 (Novartis AG, priority 2013, dated 2017).
Read-outs that look alike come from different tables or passages of the source.

Molecular target: b-Raf (V600E) (Homo sapiens (Human), UniProt P15056, V600E)
Conditions: read-out: b-Raf IC-50, AlphaScreen
[1] = 60 min pre-incubation, reaction 3 hours at room temperature
[2] = 60 min pre-incubation, 3 hours reaction

Chain of b-Raf (V600E) (P15056 whole entry V600E): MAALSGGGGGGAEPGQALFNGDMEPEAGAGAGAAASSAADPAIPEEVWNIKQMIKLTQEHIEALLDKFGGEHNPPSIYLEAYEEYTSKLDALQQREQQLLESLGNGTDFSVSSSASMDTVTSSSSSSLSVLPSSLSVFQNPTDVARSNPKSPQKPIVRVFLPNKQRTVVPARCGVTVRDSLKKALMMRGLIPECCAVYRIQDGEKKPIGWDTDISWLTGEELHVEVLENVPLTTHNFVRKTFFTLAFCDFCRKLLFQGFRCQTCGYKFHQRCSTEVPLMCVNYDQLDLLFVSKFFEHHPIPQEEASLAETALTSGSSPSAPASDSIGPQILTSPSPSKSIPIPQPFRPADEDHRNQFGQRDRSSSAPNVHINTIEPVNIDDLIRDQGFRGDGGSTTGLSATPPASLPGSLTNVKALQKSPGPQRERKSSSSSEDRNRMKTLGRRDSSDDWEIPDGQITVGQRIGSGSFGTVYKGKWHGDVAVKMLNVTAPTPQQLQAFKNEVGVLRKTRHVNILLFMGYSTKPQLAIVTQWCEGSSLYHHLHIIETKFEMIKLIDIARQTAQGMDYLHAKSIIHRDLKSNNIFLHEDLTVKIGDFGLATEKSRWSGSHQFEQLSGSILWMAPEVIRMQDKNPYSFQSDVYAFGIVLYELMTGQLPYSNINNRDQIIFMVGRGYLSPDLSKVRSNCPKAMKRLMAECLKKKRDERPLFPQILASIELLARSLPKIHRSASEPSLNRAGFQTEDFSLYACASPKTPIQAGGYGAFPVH

Structure (SMILES) | IC50 [1] [nM] | IC50 [2] [nM] | other results
CCOc1ncc(-c2cc(NC(=O)c3cc(C(F)(F)F)c(=O)n(CC)c3)cnc2C)cc1N1CCOCC1 [Example 241, N-(6′-ethoxy-2-methyl-5′-morpholino-[3,3′-bipyridin]-5-yl)-1-ethyl-6-oxo-5-(trifluoromethyl)-1,6-dihydropyridine-3-carboxamide] | – | – | IC50 (Table 2, 3 hours reaction): 5.7 nM
Cc1ncc(NC(=O)c2ccnc(C(C)(C)C#N)c2)cc1-c1cnc(OC2CCOCC2)c(N2CCOCC2)c1 [Example 272, 2-(2-cyanopropan-2-yl)-N-(2-methyl-5′-morpholino-6′-((tetrahydro-2H-pyran-4-yl)oxy)-[3,3′-bipyridin]-5-yl)isonicotinamide] | – | – | IC50 (Table 2, 3 hours reaction): 6.3 nM
Cc1ccc(NC(=O)c2ccnc(S(C)(=O)=O)c2)cc1-c1ccnc(N2CCOCC2)c1 [Example 73, N-(4-methyl-3-(2-morpholinopyridin-4-yl)phenyl)-2-(methylsulfonyl)isonicotinamide] | – | – | IC50 (Table 2, 3 hours reaction): 1.9 nM
Cn1cc(-c2cc(NC(=O)c3cccc(C(F)F)c3)ccc2F)cc(N2CCOCC2)c1=O [Example 417, 3-(difluoromethyl)-N-(4-fluoro-3-(1-methyl-5-morpholino-6-oxo-1,6-dihydropyridin-3-yl)phenyl)benzamide] | – | – | IC50 (Table 2, 3 hours reaction): 3.1 nM
CCOc1ncc(-c2cc(NC(=O)c3ccnc(C(C)(C)F)c3)cnc2C)cc1N1CCOCC1 [Example 253, N-(6′-ethoxy-2-methyl-5′-morpholino-[3,3′-bipyridin]-5-yl)-2-(2-fluoropropan-2-yl)isonicotinamide] | – | – | IC50 (Table 2, 3 hours reaction): 2.6 nM
Cc1ncc(NC(=O)c2ccnc(C3CC3)c2)cc1-c1cc(N2CCOCC2)n(C)c(=O)c1 [Example 511, 2-cyclopropyl-N-(1′,2-dimethyl-6′-morpholino-2′-oxo-1′,2′-dihydro-[3,4′-bipyridin]-5-yl)isonicotinamide] | – | 6.4 | –
Cc1ncc(NC(=O)c2ccnc(C(C)C)c2)cc1-c1cnc(C#N)c(N2CCOCC2)c1 [Example 251, N-(6′-cyano-2-methyl-5′-morpholino-[3,3′-bipyridin]-5-yl)-2-isopropylisonicotinamide] | – | – | IC50 (Table 2, 3 hours reaction): 3.1 nM
CCOc1nnc(-c2cc(NC(=O)c3ccnc(C(C)(C)C#N)c3)ccc2C)cc1N1CCOC[C@@H]1C [Example 572, (S)-2-(2-cyanopropan-2-yl)-N-(3-(6-ethoxy-5-(3-methylmorpholino)pyridazin-3-yl)-4-methylphenyl)isonicotinamide] | – | 3.8 | –
Cc1ccc(C(=O)Nc2cccc(C(F)F)c2)cc1-c1cc(N2CCOCC2)n(C)c(=O)c1 [Example 514, N-(3-(difluoromethyl)phenyl)-4-methyl-3-(1-methyl-6-morpholino-2-oxo-1,2-dihydropyridin-4-yl)benzamide] | – | 1.1 | –
Cc1ncc(NC(=O)c2ccnc(C(C)(F)F)c2)cc1-c1cncc(N2CCOCC2)n1 [Example 533, 2-(1,1-difluoroethyl)-N-(6-methyl-5-(6-morpholinopyrazin-2-yl)pyridin-3-yl)isonicotinamide] | – | 4.4 | –
Cn1cc(-c2cc(C(=O)Nc3cccc(C(F)F)c3)ccc2Cl)cc(N2CCOCC2)c1=O [Example 426, 4-chloro-N-(3-(difluoromethyl)phenyl)-3-(1-methyl-5-morpholino-6-oxo-1,6-dihydropyridin-3-yl)benzamide] | – | – | IC50 (Table 2, 3 hours reaction): 2.4 nM
CCOc1ncc(-c2cc(NC(=O)c3cc(C4CC4)on3)cnc2C)cc1N1CCOCC1 [Example 245, 5-cyclopropyl-N-(6′-ethoxy-2-methyl-5′-morpholino-[3,3′-bipyridin]-5-yl)isoxazole-3-carboxamide] | – | – | IC50 (Table 2, 3 hours reaction): 1.3 nM
CCOc1ncc(-c2cc(NC(=O)c3cnnc(C(C)(C)F)c3)ccc2C)cc1N1CCOCC1 [Example 304, N-(3-(6-ethoxy-5-morpholinopyridin-3-yl)-4-methylphenyl)-6-(2-fluoropropan-2-yl)pyridazine-4-carboxamide] | – | – | IC50 (Table 2, 3 hours reaction): 0.9 nM
Cc1ncc(NC(=O)c2cccc(C(F)F)c2)cc1-c1cc(N2CCOCC2)n(C)c(=O)c1 [Example 506, 3-(difluoromethyl)-N-(1′,2-dimethyl-6′-morpholino-2′-oxo-1′,2′-dihydro-[3,4′-bipyridin]-5-yl)benzamide] | – | 1.8 | –
CCOc1nnc(-c2cc(NC(=O)c3cccc(C(F)(F)F)c3)cnc2C)cc1N1CCOC[C@H]1C [Example 622, (R)—N-(5-(6-ethoxy-5-(3-methylmorpholino)pyridazin-3-yl)-6-methylpyridin-3-yl)-3-(trifluoromethyl)benzamide] | – | 4.9 | –
CCOc1nnc(-c2cc(NC(=O)c3ccnc(C(C)(C)C#N)c3)cnc2C)cc1N1CCOCC1 [Example 613, 2-(2-cyanopropan-2-yl)-N-(5-(6-ethoxy-5-morpholinopyridazin-3-yl)-6-methylpyridin-3-yl)isonicotinamide] | – | 10 | –
Cc1ccc(NC(=O)c2ccnc(C(F)(F)F)c2)cc1-c1cc(N2CCOCC2)c(OCCO)nn1 [Example 585, N-(3-(6-(2-hydroxyethoxy)-5-morpholinopyridazin-3-yl)-4-methylphenyl)-2-(trifluoromethyl)isonicotinamide] | – | 1.4 | –

The next lines start with results.

IC50 [1] [nM] | IC50 [2] [nM] | Structure (SMILES) | other results
3.28 | – | Cc1ncc(NC(=O)c2ccnc(C(C)(F)F)c2)cc1-c1cc(C2COCCO2)nc(N2CCOCC2)c1 (stereo not shown) [Example 1166, N-(2′-(1,4-dioxan-2-yl)-2-methyl-6′-morpholino-[3,4′-bipyridin]-5-yl)-2-(1,1-difluoroethyl)isonicotinamide] | –
100 | – | Cc1ncc(NC(=O)c2ccnc(C(C)(C)O)c2)cc1-c1cc(N2CCOCC2)c2nccn2c1 [Example 878, 2-(2-hydroxypropan-2-yl)-N-(6-methyl-5-(8-morpholinoimidazo[1,2-a]pyridin-6-yl)pyridin-3-yl)isonicotinamide] | –
0.4 | – | Cc1ccc(NC(=O)c2cccc(C(F)(F)F)c2)cc1-c1nc2c(c(N3CCOCC3)n1)S(=O)(=O)CC2 [Example 857, N-(4-methyl-3-(4-morpholino-5,5-dioxido-6,7-dihydrothieno[3,2-d]pyrimidin-2-yl)phenyl)-3-(trifluoromethyl)benzamide] | –
0.9 | – | Cc1ccc(NC(=O)c2ccnc(S(C)(=O)=O)c2)cc1-c1cc(N2CCOCC2)c2nccn2c1 [Example 851] | –
2.41 | – | Cc1ccc(NC(=O)c2cnnc(C(F)(F)F)c2)cc1-c1cc(N2CCOCC2)nc(N2CC(O)C2)c1 [Example 1070, N-(3-(2-(3-hydroxyazetidin-1-yl)-6-morpholinopyridin-4-yl)-4-methylphenyl)-6-(trifluoromethyl)pyridazine-4-carboxamide] | –
3 | – | Cc1ccc(NC(=O)c2ccnc(C(C)(C)C#N)c2)cc1-c1cnc(OCCO)c(N2CCOCC2)c1 [Example 998, 2-(2-cyanopropan-2-yl)-N-(3-(6-(2-hydroxyethoxy)-5-morpholinopyridin-3-yl)-4-methylphenyl)isonicotinamide] | –
4.2 | – | COc1ncc(-c2cc(NC(=O)c3cccc(C(F)(F)F)c3)nnc2C)cc1N1CCOCC1 [Example 934, N-(5-(6-methoxy-5-morpholinopyridin-3-yl)-6-methylpyridazin-3-yl)-3-(trifluoromethyl)benzamide] | –
1.87 | – | Cc1ccc(NC(=O)c2cnnc(C3(C#N)CC3)c2)cc1-c1cc(N2CCOCC2)n(C)c(=O)c1 [Example 899, 6-(1-cyanocyclopropyl)-N-(4-methyl-3-(1-methyl-6-morpholino-2-oxo-1,2-dihydropyridin-4-yl)phenyl)pyridazine-4-carboxamide] | –
83.6 | – | Cc1ncc(NC(=O)c2cnnc(C(F)(F)F)c2)cc1-c1cc(NCCO)nc(N2CCOCC2)c1F [Example 1004, N-(3′-fluoro-6′-((2-hydroxyethyl)amino)-2-methyl-2′-morpholino-[3,4′-bipyridin]-5-yl)-6-(trifluoromethyl)pyridazine-4-carboxamide] | –
5.41 | – | Cc1ncc(NC(=O)c2ccnc(C(C)(C)F)c2)cc1-c1cnc(OC[C@H](C)O)c(N2CCOCC2)c1 [Example 990, (S)-2-(2-fluoropropan-2-yl)-N-(6′-(2-hydroxypropoxy)-2-methyl-5-morpholino-[3,3′-bipyridin]-5-yl)isonicotinamide] | –
– | 1.1 | Cc1ccc(NC(=O)c2ccnc(C(C)(F)F)c2)cc1-c1cc(N2CCOCC2)c(=O)n(C)n1 [Example 657, 2-(1,1-difluoroethyl)-N-(4-methyl-3-(1-methyl-5-morpholino-6-oxo-1,6-dihydropyridazin-3-yl)phenyl)isonicotinamide] | –
4.12 | – | Cc1ncc(NC(=O)c2ccnc(C3CC3)c2)cc1-c1cc(NCCO)nc(N2CCOCC2)c1 [Example 1057, 2-cyclopropyl-N-(2′-((2-hydroxyethyl)amino)-2-methyl-6′-morpholino-[3,4′-bipyridin]-5-yl)isonicotinamide] | –
– | 42.7 | Cc1ncc(NC(=O)c2ccnc(C(C)(C)C#N)c2)cc1-c1cc(N2CCOCC2)nc(N[C@@H](C)CO)n1 [Example 744, (S)-2-(2-cyanopropan-2-yl)-N-(5-(2-((1-hydroxypropan-2-yl)amino)-6-morpholinopyrimidin-4-yl)-6-methylpyridin-3-yl)isonicotinamide] | –
13.4 | – | Cc1ncc(NC(=O)c2ccnc(C(F)(F)F)c2)cc1-c1cc(NCCO)nc(N2CCOC[C@H]2C)c1 [Example 1140, (R)—N-(2′-((2-hydroxyethyl)amino)-2-methyl-6′-(3-methylmorpholino)-[3,4′-bipyridin]-5-yl)-2-(trifluoromethyl)isonicotinamide] | –
0.58 | – | Cc1ccc(NC(=O)c2cccc(C(F)(F)F)c2)cc1-c1cc(NC(=O)C(C)O)nc(N2CCOCC2)c1 (stereo not shown) [Example 1066, N-(3-(2-(2-hydroxypropanamido)-6-morpholinopyridin-4-yl)-4-methylphenyl)-3-(trifluoromethyl)benzamide] | –
0.72 | – | Cc1ccc(NC(=O)c2ccnc(C3CC3)c2)cc1-c1cc(N2CCOCC2)nc(N2CC(O)C2)c1 [Example 1068, 2-cyclopropyl-N-(3-(2-(3-hydroxyazetidin-1-yl)-6-morpholinopyridin-4-yl)-4-methylphenyl)isonicotinamide] | –
– | 3.4 | CCOc1nc(-c2cc(NC(=O)c3ccnc(C(C)(C)C#N)c3)ccc2C)cc(N2CCOCC2)n1 [Example 764, 2-(2-cyanopropan-2-yl)-N-(3-(2-ethoxy-6-morpholinopyrimidin-4-yl)-4-methylphenyl)isonicotinamide] | –
